# Source: US20050143463A1, “Method of inhibiting angiogenesis” (THE QUEEN ELIZABETH HOSPITAL RESEARCH FOUNDATION INC., priority 2002, published 2005)
# Read-outs that look alike come from different tables or passages of the source.
# Key:
# [1] = test system: Human umbilical vein endothelial cells (HUVEC); assay: HUVEC proliferation assay (tritiated thymidine uptake); type: cell-based; settings: for inhibition of HUVEC proliferation in vitro, dose dependent (in words): dose dependent manner
# Description: Human umbilical vein endothelial cells (HUVEC) were seeded in 96-well flat bottomed tissue culture plates at a density of 2.5-5×10^4 cells/well and treated with various dilutions of agents. Cells were cultured in RPMI medium containing 20% FCS, Penicillin/Streptomycin in a 5% CO2 atmosphere at 37° C. After 24 to 48 hours of incubation, cells were pulsed with 1 μCi of tritiated thymidine for 6 hours. The pulsed cells were trypsinised to detach from the wells and then harvested in a TOMTEC Cell Harvester onto glass fibre filters, which were dried and immersed in scintillation fluid and counted in a Wallac Microbeta scintillation counter. The results were reported as mean cpm±SD.
# [2] = test system: corneal neovascularisation; assay: Mouse corneal vascularisation model (cornea scratched and infected with Pseudomonas aeruginosa 6294); type: in vivo, BALB/c mice; settings: for vascularisation of the cornea compared to Groups 1 and 2 (photomicrographs): Group 3, 200 μmol/10 μL topical; for Percentage of animals showing vascularisation in the infected eye / animals showing vascularisation in the infected eye (number/total): 12-MTA 200 μmol/10 μL topical, every second day from day 4; for corneal neovascularisation in mice (in words): mouse, in vivo
# Source text: To induce neovascularisation in the cornea of mice, cornea were scratched and infected with Pseudomonas aeruginosa as essentially described in Cole, N., Willcox, M. D. P., Fleiszig, S. M. J., Stapleton, F., Bao, S., Tout, S., Husband, A. J. (1998) “Different strains of Pseudomonas aeruginosa isolated from ocular infections or inflammation display distinct corneal pathologies in an animal model.” Curr. Eye Res., 17:730-735.
# Briefly, stock cultures of P. aeruginosa 6294 stored in 30% glycerol at −70° C. were inoculated into 10 mL of tryptone soya broth (Oxoid Ltd, Sydney, Australia). Cultures were prepared as previously described (Cole et al. (1998) Curr. Eye Res. 17:730-735) and suspended in phosphate buffered saline (PBS) to a concentration of 4×10^8 cfu (colony forming units)/ml. Bacterial concentration was adjusted turbidimetrically and the dose confirmed retrospectively by viable counts.
# Inbred 6-8 week old BALB/c mice were anaesthetised with Averin (125 mg/kg, intraperitoneally) and the corneal surfaces of the eyes were incised with a sterile 27 gauge needle. 5 μL of the bacterial suspension (2.0×10^6 cfu) of strain 6294 was pipetted directly onto the wounded cornea of the left eye only. The right eye of each animal served as a control and was scratched but not infected. A minimum of eight mice per treatment group were used.
# 12-MTA at 200 μmol/10 μL was prepared as an emulsion in unpreserved paraffin and lanolin ophthalmic ointment base (Polyvisc, Alcon, Belgium) for topical application. Animals were divided into three treatment groups: Group 1 received no treatment; Group 2 received 10 μL of vehicle topically to the cornea per treatment to both the challenged and scratch control eye; and Group 3 received 10 μL of the 12-MTA as described above to both the challenged and scratch control eyes. The treatment schedule was begun four days after challenge and then every second day until the termination of the experiment 14 days post-challenge.
# Mice were examined prior to bacterial challenge, immediately subsequent to bacterial challenge and 7 and 14 days post-challenge by a masked observer. The animals were anaesthetised for examination as described above and the corneas were examined at 48× magnification under white light using an FS2 photo slit-lamp biomicroscope (Topcon Corporation, Tokyo, Japan). At 7 and 14 days post-challenge, following the white light examination, 1% sodium fluorescein was instilled and the corneas viewed under UV light. Grades of severity of corneal damage were made and measurement of the extent and incursion of vessels into the central cornea were made.
# Measurements were examined for significance using non-parametric Kruskal-Wallis and Mann Whitney U analysis.
# For histological examination of corneas, mice were sacrificed at 14 days post-challenge. The eyes were immediately enucleated, fixed in neutral buffered formalin and embedded in paraffin. […] sections were cut and stained with haematoxylin and eosin for histopathological examination.
# [3] = 50 μM, tritiated thymidine uptake
# [4] = 100 μM, tritiated thymidine uptake
# [5] = 200 μM, tritiated thymidine uptake
# [6] = 400 μM, tritiated thymidine uptake
# [7] = 800 μM, tritiated thymidine uptake
smiles,measurement,setting,value
"CCC(C)CCCCCCCCCCC(=O)O (stereo not drawn) [12-MTA, 12-methyltetradecanoic acid]",% Inhibition of HUVEC proliferation,"[1]; 50 μM, percentage of control cells with no added agent (Table 1)",13.3%
same,Average,[1]; [3],18781.3 cpm
same,Sample 1,[1]; [3],19272 cpm
same,Sample 2,[1]; [3],19942 cpm
same,Sample 3,[1]; [3],17130 cpm
same,Average,[1]; [4],17593.0 cpm
same,Sample 1,[1]; [4],20367 cpm
same,Sample 2,[1]; [4],16963 cpm
same,Sample 3,[1]; [4],15449 cpm
same,Average,[1]; [5],15707.7 cpm
same,Sample 1,[1]; [5],18491 cpm
same,Sample 2,[1]; [5],15435 cpm
same,Sample 3,[1]; [5],13197 cpm
same,HUVEC proliferation (in words),"[1]; 400 μM concentration, tritiated thymidine uptake",inhibited
same,Average,[1]; [6],12104.7 cpm
same,Sample 1,[1]; [6],12558 cpm
same,Sample 2,[1]; [6],13837 cpm
same,Sample 3,[1]; [6],9919 cpm
same,microscopic examination of the cells,[1]; 800 μM,appearance of apoptotic cells
same,Average,[1]; [7],9.0 cpm
same,Sample 1,[1]; [7],11 cpm
same,Sample 2,[1]; [7],7 cpm
same,Sample 3,[1]; [7],9 cpm
same,inhibition at 50 µM,"[1]; Homo sapiens, HUVEC, 50 μM, percentage of control cells with no added agent (Table 1)",13%
same,inhibition at 100 µM,"[1]; Homo sapiens, HUVEC, 100 μM, percentage of control cells with no added agent (Table 1)",18.7%
same,inhibition at 200 µM,"[1]; Homo sapiens, HUVEC, 200 μM, percentage of control cells with no added agent (Table 1)",27.5%
same,inhibition at 400 µM,"[1]; Homo sapiens, HUVEC, 400 μM concentration, percentage of control cells with no added agent (Table 3), read-out: Percentage inhibition of HUVEC proliferation",32%
same,inhibition at 400 µM,"[1]; Homo sapiens, HUVEC, 400 μM, percentage of control cells with no added agent (Table 1), read-out: % Inhibition of HUVEC proliferation",44.1%
same,inhibition at 800 µM,"[1]; Homo sapiens, HUVEC, 800 μM, percentage of control cells with no added agent (Table 1)",99%
same,inhibition at 100 µM,"[1]; Homo sapiens, HUVEC, 24 h, 100 μM 12-MTA, 24 hours (Table 2)",24.8%
same,inhibition at 200 µM,"[1]; Homo sapiens, HUVEC, 24 h, 200 μM 12-MTA, 24 hours (Table 2)",30.2%
same,cell viability,[1]; concentrations between 50 to 400 μM,good viability
same,"inhibition of HUVEC proliferation in vitro, dose dependent (in words)",[1],inhibited in a dose response manner
same,"inhibition of HUVEC proliferation in vitro, dose dependent (in words)",[1]; listed as 12-methyl tetradecanoic acid,inhibit the proliferation
same,effect on scratch control (uninfected) eyes,"[2]; 200 μmol/10 μL topical, any time point",does not affect the cornea
same,blood vessel formation in the corneal stroma (histological examination),"[2]; 14 days post-challenge, Group 3",reduced blood vessel formation
same,vascularisation of the cornea compared to Groups 1 and 2 (photomicrographs),[2]; Day 7,reduced vascularisation
same,Percentage of animals showing vascularisation in the infected eye,[2]; Day 7 post-challenge,40%
same,animals showing vascularisation in the infected eye (number/total),[2]; Day 7 post-challenge,4/10
same,vascularisation of the cornea compared to Groups 1 and 2 (photomicrographs),[2]; Day 14,reduced vascularisation
same,Percentage of animals showing vascularisation in the infected eye,[2]; Day 14 post-challenge,50%
same,animals showing vascularisation in the infected eye (number/total),[2]; Day 14 post-challenge,5/10
same,animals with mild ocular response,"[2]; Group 3, Day 14 post-challenge",60%
same,animals with severe ocular response,"[2]; Group 3, Day 14 post-challenge",20%
same,median score of severity of corneal damage (ocular response),"[2]; Group 3, Day 14 post-challenge",1.65 (range 0-4)
same,animals with a persistent epithelial defect,"[2]; Group 3, first examination",20%
same,animals with mild ocular response,"[2]; Group 3, first examination",50%
same,animals with severe ocular response,"[2]; Group 3, first examination",10%
same,median score of severity of corneal damage (ocular response),"[2]; Group 3, first examination (Day 7 implied, not given)",2.1 (range 0.54)
same,corneal neovascularisation in mice (in words),[2],inhibited corneal neovascularization
same,corneal neovascularisation in mice (in words),[2]; listed as 12-methlytetradecanoic acid,inhibits corneal neovascularisation
